Active and inactive are the calls of the source. No cut-off for these calls is given here. Where a SMILES comes first, the peptide text is derived from it. [ ]: non-standard residue; d: D form. βAla = NCCC(=O)O
Tests used:
[1] = test system: Monoclonal antibody (mAb) 3E7; test: Affinity towards anti-beta-endorphin MAb(Clone 3-E7) using [3H][Leu5]-enkephalin as labeled ligand
[2] = test system: Monoclonal antibody (mAb) 3E7; test: Affinity towards anti-beta-endorphin MAb(Clone 3-E7) using [3H][Leu5]-enkephalin as labeled ligand at 10 uM concentration; not active

## NC(=O)CC[C@H](NC(=O)[C@H](Cc1ccccc1)NC(=O)CNC(=O)CNC(=O)[C@@H](N)Cc1ccccc1)C(N)=O (H-FGGFQ-NH2)
[1]
  IC50: 40.1 nM

## NC(=O)CC[C@H](NC(=O)[C@H](Cc1ccccc1)NC(=O)CNC(=O)CNC(=O)[C@@H](N)Cc1ccccc1)C(=O)O (H-FGGFQ-OH)
[1]
  IC50: 15 nM

## NC(=O)CCNC(=O)[C@H](CCC(N)=O)NC(=O)[C@H](Cc1ccccc1)NC(=O)CNC(=O)CNC(=O)[C@@H](N)Cc1ccccc1 (H-FGGFQ[βAla]-NH2)
[1]
  IC50: 45.4 nM

## NC(=O)CC[C@H](NC(=O)[C@H](Cc1ccccc1)NC(=O)CNC(=O)CNC(=O)[C@@H](N)Cc1ccccc1)C(=O)NCCC(=O)O (H-FGGFQ[βAla]-OH)
[1]
  IC50: 39.4 nM

## CC(C)C[C@H](N)C(=O)N[C@@H](Cc1ccc(O)cc1)C(=O)NCC(=O)NCC(=O)N[C@@H](Cc1ccccc1)C(=O)O (H-LYGGF-OH)
[2]
  Activity: inactive

## CSCC[C@H](N)C(=O)N[C@@H](Cc1ccc(O)cc1)C(=O)NCC(=O)NCC(=O)N[C@@H](Cc1ccccc1)C(=O)O (H-MYGGF-OH)
[2]
  Activity: inactive

## NC(=O)C[C@H](N)C(=O)N[C@@H](Cc1ccc(O)cc1)C(=O)NCC(=O)NCC(=O)N[C@@H](Cc1ccccc1)C(=O)O (H-NYGGF-OH)
[2]
  Activity: inactive

## CC(C)C[C@H](NC(=O)[C@H](CC(C)C)NC(=O)CNC(=O)[C@H](Cc1ccc(O)cc1)NC(=O)[C@@H](N)CCCN=C(N)N)C(=O)O (H-RYGLL-OH)
[2]
  Activity: inactive

## C[C@H](NC(=O)CNC(=O)[C@@H](N)Cc1ccc(O)cc1)C(=O)N[C@@H](Cc1ccccc1)C(=O)N[C@@H](Cc1ccccc1)C(=O)O (H-YGAFF-OH)
[2]
  Activity: inactive

## CC[C@H](C)[C@H](NC(=O)[C@H](Cc1ccccc1)NC(=O)[C@H](C)NC(=O)CNC(=O)[C@@H](N)Cc1ccc(O)cc1)C(=O)O (H-YGAFI-OH)
[2]
  Activity: inactive

## CSCC[C@H](NC(=O)[C@H](Cc1ccccc1)NC(=O)[C@H](C)NC(=O)CNC(=O)[C@@H](N)Cc1ccc(O)cc1)C(=O)O (H-YGAFM-OH)
[2]
  Activity: inactive

## C[C@H](NC(=O)CNC(=O)[C@@H](N)Cc1ccc(O)cc1)C(=O)N[C@@H](Cc1ccccc1)C(=O)N[C@@H](CCC(N)=O)C(=O)O (H-YGAFQ-OH)
[2]
  Activity: inactive

## C[C@H](NC(=O)CNC(=O)[C@@H](N)Cc1ccc(O)cc1)C(=O)N[C@@H](Cc1ccccc1)C(=O)N[C@H](C(=O)O)[C@@H](C)O (H-YGAFT-OH)
[2]
  Activity: inactive

## CC(C)C[C@H](NC(=O)[C@H](C)NC(=O)CNC(=O)[C@@H](N)Cc1ccc(O)cc1)C(=O)N[C@@H](CCC(N)=O)C(N)=O (H-YGALQ-NH2)
[1]
  IC50: 2910 nM

## CC(C)C[C@H](NC(=O)[C@H](C)NC(=O)CNC(=O)[C@@H](N)Cc1ccc(O)cc1)C(=O)N[C@@H](CCC(N)=O)C(=O)NCCC(N)=O (H-YGALQ[βAla]-NH2)
[1]
  IC50: 2870 nM

## CC(C)C[C@H](NC(=O)[C@H](C)NC(=O)CNC(=O)[C@@H](N)Cc1ccc(O)cc1)C(=O)N[C@@H](CCC(N)=O)C(=O)NCCC(=O)O (H-YGALQ[βAla]-OH)
[1]
  IC50: 1470 nM

## CC(C)C[C@H](NC(=O)[C@H](C)NC(=O)CNC(=O)[C@@H](N)Cc1ccc(O)cc1)C(=O)N[C@H](C(=O)O)[C@@H](C)O (H-YGALT-OH)
[2]
  Activity: inactive

## C[C@H](NC(=O)CNC(=O)[C@@H](N)Cc1ccc(O)cc1)C(=O)N[C@@H](Cc1c[nH]c2ccccc12)C(=O)N[C@@H](CC(=O)O)C(=O)O (H-YGAWD-OH)
[2]
  Activity: inactive

## C[C@H](NC(=O)[C@H](CCC(=O)O)NC(=O)CNC(=O)[C@@H](N)Cc1ccc(O)cc1)C(=O)N[C@@H](Cc1ccccc1)C(=O)O (H-YGEAF-OH)
[2]
  Activity: inactive

## NC(=O)CC[C@H](NC(=O)[C@H](Cc1ccccc1)NC(=O)[C@H](Cc1ccccc1)NC(=O)CNC(=O)[C@@H](N)Cc1ccc(O)cc1)C(=O)O (H-YGFFQ-OH)
[2]
  Activity: inactive

## C[C@H](NC(=O)[C@H](Cc1ccccc1)NC(=O)CNC(=O)CNC(=O)[C@@H](N)Cc1ccc(O)cc1)C(N)=O (H-YGGFA-NH2)
[1]
  IC50: 72 nM

## C[C@H](NC(=O)[C@H](Cc1ccccc1)NC(=O)CNC(=O)CNC(=O)[C@@H](N)Cc1ccc(O)cc1)C(=O)NCCC(N)=O (H-YGGFA[βAla]-NH2)
[1]
  IC50: 93.6 nM

## C[C@H](NC(=O)[C@H](Cc1ccccc1)NC(=O)CNC(=O)CNC(=O)[C@@H](N)Cc1ccc(O)cc1)C(=O)NCCC(=O)O (H-YGGFA[βAla]-OH)
[1]
  IC50: 82.3 nM

## CC[C@H](C)[C@H](NC(=O)[C@H](Cc1ccccc1)NC(=O)CNC(=O)CNC(=O)[C@@H](N)Cc1ccc(O)cc1)C(=O)O (H-YGGFI-OH)
[2]
  Activity: inactive

## CC(C)C[C@H](NC(=O)[C@H](Cc1ccccc1)NC(=O)CNC(=O)CNC(=O)[C@@H](N)Cc1ccc(O)cc1)C(=O)N[C@@H](C)C(N)=O (H-YGGFLA-NH2)
[1]
  IC50: 13.7 nM

## CC(C)C[C@H](NC(=O)[C@H](Cc1ccccc1)NC(=O)CNC(=O)CNC(=O)[C@@H](N)Cc1ccc(O)cc1)C(=O)N[C@@H](C)C(=O)O (H-YGGFLA-OH)
[1]
  IC50: 17.1 nM

## NC(=O)CC[C@H](NC(=O)[C@H](Cc1ccccc1)NC(=O)CNC(=O)CNC(=O)[C@@H](N)Cc1ccc(O)cc1)C(=O)O (H-YGGFQ-OH)
[2]
  Activity: inactive

## C[C@@H](O)[C@H](NC(=O)[C@H](Cc1ccccc1)NC(=O)CNC(=O)CNC(=O)[C@@H](N)Cc1ccc(O)cc1)C(N)=O (H-YGGFT-NH2)
[1]
  IC50: 65.2 nM

## C[C@@H](O)[C@H](NC(=O)[C@H](Cc1ccccc1)NC(=O)CNC(=O)CNC(=O)[C@@H](N)Cc1ccc(O)cc1)C(=O)NCCC(N)=O (H-YGGFT[βAla]-NH2)
[1]
  IC50: 43.3 nM

## C[C@@H](O)[C@H](NC(=O)[C@H](Cc1ccccc1)NC(=O)CNC(=O)CNC(=O)[C@@H](N)Cc1ccc(O)cc1)C(=O)NCCC(=O)O (H-YGGFT[βAla]-OH)
[1]
  IC50: 50.6 nM

## N[C@@H](Cc1ccc(O)cc1)C(=O)NCC(=O)NCC(=O)NCC(=O)N[C@@H](Cc1ccccc1)C(=O)O (H-YGGGF-OH)
[2]
  Activity: inactive

## CC(C)C[C@H](NC(=O)CNC(=O)CNC(=O)[C@@H](N)Cc1ccc(O)cc1)C(=O)N[C@@H](CO)C(N)=O (H-YGGLS-NH2)
[1]
  IC50: 991 nM

## CC(C)C[C@H](NC(=O)CNC(=O)CNC(=O)[C@@H](N)Cc1ccc(O)cc1)C(=O)N[C@@H](CO)C(=O)NCCC(N)=O (H-YGGLS[βAla]-NH2)
[1]
  IC50: 1150 nM

## CC(C)C[C@H](NC(=O)CNC(=O)CNC(=O)[C@@H](N)Cc1ccc(O)cc1)C(=O)N[C@@H](CO)C(=O)NCCC(=O)O (H-YGGLS[βAla]-OH)
[1]
  IC50: 916 nM

## C[C@H](NC(=O)[C@H](Cc1c[nH]cn1)NC(=O)CNC(=O)[C@@H](N)Cc1ccc(O)cc1)C(=O)N[C@@H](Cc1ccccc1)C(=O)O (H-YGHAF-OH)
[2]
  Activity: inactive

## CC(C)C[C@H](NC(=O)CNC(=O)[C@@H](N)Cc1ccc(O)cc1)C(=O)NCC(=O)N[C@@H](Cc1ccccc1)C(=O)O (H-YGLGF-OH)
[2]
  Activity: inactive

## CSCC[C@H](NC(=O)CNC(=O)[C@@H](N)Cc1ccc(O)cc1)C(=O)NCC(=O)N[C@@H](Cc1ccccc1)C(=O)O (H-YGMGF-OH)
[2]
  Activity: inactive

## NC(=O)C[C@H](NC(=O)CNC(=O)[C@@H](N)Cc1ccc(O)cc1)C(=O)N[C@@H](Cc1ccccc1)C(=O)N[C@@H](Cc1ccccc1)C(=O)O (H-YGNFF-OH)
[2]
  Activity: inactive

## N[C@@H](Cc1ccc(O)cc1)C(=O)NCC(=O)N1CCC[C@H]1C(=O)NCC(=O)N[C@@H](Cc1ccccc1)C(=O)O (H-YGPGF-OH)
[2]
  Activity: inactive

## CC(C)[C@H](NC(=O)[C@H](Cc1ccccc1)NC(=O)[C@H](CCC(N)=O)NC(=O)CNC(=O)[C@@H](N)Cc1ccc(O)cc1)C(=O)O (H-YGQFV-OH)
[2]
  Activity: inactive

## CC(C)[C@H](NC(=O)CNC(=O)[C@@H](N)Cc1ccc(O)cc1)C(=O)N[C@@H](Cc1ccccc1)C(=O)N[C@@H](C)C(=O)O (H-YGVFA-OH)
[2]
  Activity: inactive

## CC(C)[C@H](NC(=O)CNC(=O)[C@@H](N)Cc1ccc(O)cc1)C(=O)N[C@@H](Cc1ccccc1)C(=O)N[C@@H](CCC(=O)O)C(=O)O (H-YGVFE-OH)
[2]
  Activity: inactive

## CC[C@H](C)[C@H](NC(=O)[C@H](Cc1ccccc1)NC(=O)[C@@H](NC(=O)CNC(=O)[C@@H](N)Cc1ccc(O)cc1)C(C)C)C(=O)O (H-YGVFI-OH)
[2]
  Activity: inactive

## CC(C)[C@H](NC(=O)CNC(=O)[C@@H](N)Cc1ccc(O)cc1)C(=O)N[C@@H](Cc1ccccc1)C(=O)N[C@@H](CCC(N)=O)C(=O)O (H-YGVFQ-OH)
[2]
  Activity: inactive

## N[C@@H](Cc1ccc(O)cc1)C(=O)NCC(=O)N[C@@H](Cc1c[nH]c2ccccc12)C(=O)N[C@@H](Cc1ccccc1)C(=O)N[C@@H](Cc1c[nH]cn1)C(=O)O (H-YGWFH-OH)
[2]
  Activity: inactive

## NC(=O)C[C@H](NC(=O)[C@H](Cc1ccccc1)NC(=O)[C@H](Cc1c[nH]c2ccccc12)NC(=O)CNC(=O)[C@@H](N)Cc1ccc(O)cc1)C(=O)O (H-YGWFN-OH)
[2]
  Activity: inactive

## NC(=O)CC[C@H](NC(=O)[C@H](Cc1ccccc1)NC(=O)[C@H](Cc1c[nH]c2ccccc12)NC(=O)CNC(=O)[C@@H](N)Cc1ccc(O)cc1)C(=O)O (H-YGWFQ-OH)
[2]
  Activity: inactive

## CSCC[C@H](NC(=O)[C@H](Cc1c[nH]c2ccccc12)NC(=O)[C@H](Cc1c[nH]c2ccccc12)NC(=O)CNC(=O)[C@@H](N)Cc1ccc(O)cc1)C(=O)O (H-YGWWM-OH)
[2]
  Activity: inactive

## N[C@@H](Cc1ccc(O)cc1)C(=O)NCC(=O)N[C@@H](Cc1ccc(O)cc1)C(=O)N[C@@H](Cc1ccccc1)C(=O)N[C@@H](Cc1ccccc1)C(=O)O (H-YGYFF-OH)
[2]
  Activity: inactive

## NC(=O)CC[C@H](NC(=O)[C@H](Cc1c[nH]c2ccccc12)NC(=O)[C@H](Cc1ccc(O)cc1)NC(=O)CNC(=O)[C@@H](N)Cc1ccc(O)cc1)C(=O)O (H-YGYWQ-OH)
[2]
  Activity: inactive

## NCCCC[C@H](NC(=O)[C@@H](N)Cc1ccc(O)cc1)C(=O)NCC(=O)NCC(=O)N[C@@H](Cc1ccccc1)C(=O)O (H-YKGGF-OH)
[2]
  Activity: inactive

## CC(C)C[C@H](NC(=O)[C@@H](N)Cc1ccc(O)cc1)C(=O)NCC(=O)NCC(=O)N[C@@H](Cc1ccccc1)C(=O)O (H-YLGGF-OH)
[2]
  Activity: inactive

## NC(=O)CC[C@H](NC(=O)[C@@H](N)Cc1ccc(O)cc1)C(=O)NCC(=O)NCC(=O)N[C@@H](Cc1ccccc1)C(=O)O (H-YQGGF-OH)
[2]
  Activity: inactive

## CC(C)C[C@H](NC(=O)[C@H](Cc1ccccc1)NC(=O)CNC(=O)CNC(=O)[C@@H](N)Cc1ccc(O)cc1)C(=O)O [ENKEPHALIN]
[2]
  Activity: inactive

— ChEMBL document CHEMBL1150994, “The chemical synthesis of large random peptide libraries and their use for the discovery of ligands for macromolecular acceptors” (Bioorg Med Chem Lett, 1993)
